Read-outs that look alike come from different tables or passages of the source.
Legend:
[1] = tested on: fixation de la (³H)BTCP dans le striatum de souris; assay: Inhibition of in vivo (3H)BTCP binding in mouse striatum (Example 40); settings: mice, compound s.c. 60 min before i.v. (3H)BTCP, sacrifice 30 min later
Procedure: Exemple 40 : Etude de l'inhibition de la fixation "in vivo" de (³H)BTCP chez la souris.
Pour cette étude, on utilise des souris Swiss mâles pesant 20 à 25g. Les souris sont réparties par groupes et alimentées avec de la nourriture standard de laboratoire et de l'eau à volonté, en réalisant des cycles de lumière artificielle de 12h consécutives à partir de 7h du matin. Les expériences sont effectuées entre 10h et 18h. Les mesures de la fixation "in vivo" de la (³H)BTCP sont effectuées comme il a été décrit par Maurice et al, 1989, de la façon suivante.
On injecte aux souris par voie sous-cutanée le composé à tester dans 100µl de solution physiologique pour les composés n^o 4 et n^o 16 et dans 100µl d'un mélange 1:1 en volume de solution physiologique et de DMSO pour le composé n^o 26. 60 min après cette injection on leur injecte dans une veine de la queue (³H)BTCP à une dose de 5µCi dans 100µl d'un mélange de solution physiologique et d'éthanol à 5%. 30min après cette injection, on sacrifie les souris. Les striata de cerveaux sont rapidement disséqués et homogénéisés avec un ultra turrax (IKA Verk) réglage maximum pendant 20s dans 80 volumes d'un tampon Na₂HPO₄, HCl 50mM, pH=7,4 à 4°C. Deux aliquots de […] sont filtrées sous pression réduite sur des filtres GF/B (Whatman) prétraités par de la polyéthylène imine à 0,5% (Aldrich). On rince ensuite les filtres deux fois avec 5ml d'un tampon NaCl 50mM, tris-HCl 10mM, pH=7,4 à 4°C. La radioactivité fixée qui reste sur les filtres, et la radioactivité totale, obtenue à partir des deux aliquots de 200µl d'homogénats sont mesurées dans des flacons de 6ml contenant 3,5ml de ACS (Amersham) avec un spectrophotomètre à scintillation liquide Excel 1410 (LKB). La fixation non spécifique est définie comme la radioactivité présente dans chaque région après prétraitement des animaux avec de la BTCP (40mg/kg dans 100µl de solution saline), injectée par voie sous-cutanée, 60min avant l'injection de (³H)BTCP. Les résultats sont exprimés sous la forme des rapports radioactivité fixée / radioactivité libre (B/F) dans lesquels le taux de (³H)BTCP libre est estimé en soustrayant la radioactivité fixée de la radioactivité totale.

récepteur de la PCP = assay: Competition binding at the (3H)TCP sites on rat brain homogenates (Example 36); settings: 1 nM (3H)TCP, 30 min at 25°C
Description: Exemple 36 : Affinité des composés pour les sites de liaison de la (³H)TCP sur les homogénats de cerveaux de rats.
Dans cet essai on mesure les affinités des composés pour le récepteur de la PCP par des expériences de compétition sur des homogénats de cerveaux de rats. Le ligand radioactif utilisé est la (³H)TCP à une activité spécifique de 62 Ci/mmol (Service des Molécules Marquées, CEA Saclay France).
Les cerveaux de rats (sans le cervelet et le tronc cérébral) sont homogénéisés à l'ultra turax dans 20 volumes de tampon Hepes-Tris 50 mM, pH 7,7. Après centrifugation pendant 30 min à 15000 g le culot est repris dans le même volume de tampon et recentrifugé dans les mêmes conditions. Le culot final est repris dans du tampon Hepes-Tris 50 mM, pH 7,7 de façon à obtenir une concentration en protéine de 6 à 8 mg/ml.
Les expériences de compétition sont réalisées en incubant pendant 30 min les membranes (concentration finale en protéine : 0,6 à 0,8 mg/ml) en milieu tampon 5 mM Hepes-Tris, pH 7,7 à 25°C, en présence d'une concentration fixe de ligand tritié (1 nM)et de concentrations croissantes de composés à tester. Trois échantillons de 600 µL sont ensuite filtrés sur filtres de fibres de verre GF/B prétraités par du PEI (polyéthylénimine) à 0,1%. Les filtres sont rincés avec 3x5ml de tampon Tris-HCl 10 mM, NaCl 100 mM et la radioactivité retenue est mesurée dans un compteur à scintillation liquide. La liaison non spécifique est obtenue en présence de TCP […].

[2] = target: T1, complexe de recapture de la dopamine (Rattus norvegicus, UniProt P23977); assay: biochemical; assay type: binding; settings: for IC50: read-out: [3H] BTCP IC50
T1 construct: expériences de compétition sur les membranes de striatum préparées comme ci-dessus; from tissue; host or cells: rat striatal membranes
T1 sequence (P23977 whole entry, one chain of several): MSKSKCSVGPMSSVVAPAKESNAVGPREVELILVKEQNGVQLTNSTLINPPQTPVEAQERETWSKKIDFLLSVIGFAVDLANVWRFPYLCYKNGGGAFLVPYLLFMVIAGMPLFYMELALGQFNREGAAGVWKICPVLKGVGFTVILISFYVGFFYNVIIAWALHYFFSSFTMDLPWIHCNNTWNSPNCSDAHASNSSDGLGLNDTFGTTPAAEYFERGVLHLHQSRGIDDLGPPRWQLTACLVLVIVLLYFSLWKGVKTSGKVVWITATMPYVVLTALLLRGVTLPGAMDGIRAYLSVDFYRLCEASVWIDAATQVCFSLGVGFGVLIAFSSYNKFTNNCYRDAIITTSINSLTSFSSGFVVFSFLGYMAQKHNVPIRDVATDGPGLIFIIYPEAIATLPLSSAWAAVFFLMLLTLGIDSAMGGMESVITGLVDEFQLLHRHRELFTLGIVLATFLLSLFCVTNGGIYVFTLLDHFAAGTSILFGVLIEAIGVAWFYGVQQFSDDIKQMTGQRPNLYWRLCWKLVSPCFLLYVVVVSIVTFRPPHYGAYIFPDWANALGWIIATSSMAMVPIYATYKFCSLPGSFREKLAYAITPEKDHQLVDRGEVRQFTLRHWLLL
Procedure: Exemple 35 : Affinité des composés pour les sites de liaison de la (³H)BTCP sur les membranes striatales de cerveaux de rats.
Les striata de cerveaux de rats rapidement disséqués dans la glace sont homogénéisés avec un ultra turax pendant 30 s (position 6) dans 50 volumes d'une solution de sucrose 0,32 M tamponnée par du Tris-HCl 10 mM à pH = 7,4. L'homogénat est centrifugé à 4°C à 1000g pendant 10 mln, puis le surnageant obtenu est centrifugé à 40000 g à 4°C pendant 30 min et les culots obtenus sont repris dans 1 ml de tampon par striatum.
L'affinité des composés pour le complexe de recapture de la dopamine est déterminée par des expériences de compétition sur les membranes de striatum préparées comme ci-dessus. Le ligand radioactif utilisé est la (³H)BTCP (Service des Molécules Marquées du CEA, Saclay France) à 55Ci/mmol.
Après 90 min à 4°C, 3 aliquots de 250 µl sont filtrés sous vide sur des filtres de fibre de verre GF/B (Whatman). La liaison non spécifique est obtenue dans des expériences parallè-les réalisées en présence de 10 µM de BTCP non marquée. Elle est soustraite de la liaison totale pour obtenir la liaison spécifique.

[3] = rat striatal membranes, 0,2 nM (3H)BTCP, 90 min at 4°C
[4] = ratio of IC50 at the PCP receptor to IC50 at the dopamine reuptake complex

Compound	ID₅₀ (mg/kg) [1]	IC50 (récepteur de la PCP)	IC50 [2, 3]	Sélectivité IC50[^3H]TCP / IC50[^3H]BTCP [2, 4]	Sélectivité IC50[^3H]TCP / IC50[^3H]BTCP ([2]; rat)	IC50 [2]	Sélectivité pour le complexe de recapture de la dopamine comparé au récepteur de la PCP, result in words [2]
c1ccc2oc(C3(N4CCCCC4)CCCCC3)cc2c1 [composé n^o 4, (benzo(b)furannyl-2)-1 (pipéridino-1)-1 cyclohexane]	7,78 mg/kg	40000 nM	19.1 nM	2094			
c1ccc2sc(C3(N4CCCCC4)CCCCC3)cc2c1 [BTCP, (benzo(b)thiophényl-2)-1 (pipéridino -1) cyclohexane, reference compound]	4,98 mg/kg	20000 nM			2380	8.4 nM	
C[C@H]1CC[C@@](c2cc3ccccc3s2)(N2CCCCC2)CC1 [composé n^o 21, (benzo(b)thiophényl-2)-1 c-méthyl-4-r-(pipéridino-1)-1 cyclohexane]		> 100000 nM	6.9 nM	>>14493			très bons résultats
CCCN(CCC)C1(c2cc3ccccc3s2)CCCCC1 [composé no 3, (benzo(b)thiophényl-2)-1 (dipropylamino-1)-1 cyclohexane]		424000 nM	7.2 nM	58889			très bons résultats
CC1CCCN(C2(c3cc4ccccc4s3)CCCCC2)C1 (centres unmarked) [composé n^o 2, (benzo(b)thiophényl-2)-1 ((méthyl-3 pipéridino)-1)-1 cyclohexane]		52000 nM	13.3 nM	3910			
C[C@H]1CC[C@](c2cc3ccccc3s2)(N2CCCCC2)CC1 [composé n^o 20, (benzo(b)thiophényl-2)-1-t-méthyl-4-r-(pipéridino-1)-1 cyclohexane]		112000 nM	20.7 nM	5410			
CC1CC(C)CN(C2(c3cc4ccccc4s3)CCCCC2)C1 (centres unmarked) [composé n^o 6, (benzo(b)thiophényl-2)-1 ((diméthyl-3,5 pipéridino)-1)-1 cyclohexane]		> 100000 nM	12.7 nM	>>7874			
BrCC1CCCN(C2(c3cc4ccccc4s3)CCCCC2)C1 (centres unmarked) [composé n^o 10, (benzo(b)thiophényl-2)-1 ((bromométhyl-3 pipéridino)-1)-1 cyclohexane]		> 100000 nM	34.5 nM	>>2898			
OC1CCN(C2(c3cc4ccccc4s3)CCCCC2)CC1 [composé 26, (benzo(b)thiophényl-2)-1( (ol-4-pipéridino)-1)-1 cyclohexane]	0,56 mg/kg	31900 nM	15.9 nM	2006			

Reference: patent EP0406111A1, “Substituted arylamines and heteroarylamines, process for their preparation and pharmaceutical composition containing them” (SOCIETE DE CONSEILS DE […] D'APPLICATIONS SCIENTIFIQUES …, priority 1989, dated 1991)
